Drawing on BindingDB's records for doi:10.1021/jm0510934 (Abbott Laboratories, 2006), this text covers IC50 for 34 compounds.

Structures are written as SMILES.

For the first test, the target named is Growth hormone secretagogue receptor type 1 (Homo sapiens, UniProt Q92847). The test is described as follows: Receptor Binding Studies and GHS-R Ca2+ Flux Assay.
Sequence of Growth hormone secretagogue receptor type 1 (Q92847 whole entry): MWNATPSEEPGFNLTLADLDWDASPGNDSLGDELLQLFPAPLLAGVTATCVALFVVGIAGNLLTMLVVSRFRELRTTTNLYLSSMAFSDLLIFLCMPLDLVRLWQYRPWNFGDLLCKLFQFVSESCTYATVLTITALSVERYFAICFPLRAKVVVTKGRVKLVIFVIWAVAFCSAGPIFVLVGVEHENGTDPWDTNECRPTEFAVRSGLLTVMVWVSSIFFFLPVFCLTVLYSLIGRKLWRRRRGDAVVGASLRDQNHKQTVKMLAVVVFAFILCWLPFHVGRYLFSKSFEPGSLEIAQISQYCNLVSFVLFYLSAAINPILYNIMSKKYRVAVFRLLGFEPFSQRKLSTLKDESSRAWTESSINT
Conditions: not given
The procedure:
Specific binding was determined by incubation of membranes from GHS-R1a transfected CHO-K cells with 125I-His9-ghrelin in the presence of increasing concentrations of compounds to obtain IC50. Fluorescence emissions from 96 wells were measured simultaneously at excitation and emission wavelength of 488 and 520 nm, respectively. During this time, agonist responses in the absence of ghrelin, or the antagonist effects of compounds on ghrelin-stimulated calcium flux were recorded. Sigmoidal curves were fitted and EC50/IC50 values were determined by GraphPad Prism software.
Regarding `Nc1nc(N)c(-c2ccc(CNc3ccc([N+](=O)[O-])cc3)cc2)c(COCc2ccccc2)n1` [6-[(benzyloxy)methyl]-5-(4-{[(4-nitrophenyl)amino]methyl}phenyl)pyrimidine-2,4-diamine], the IC50 stood at 16 nM. Still for that read-out and setting: as for `Nc1nc(N)c(-c2ccc(NCc3ccncc3)cc2)c(COCc2ccccc2)n1` [6-[(benzyloxy)methyl]-5-{4-[(pyridin-4-ylmethyl)amino]phenyl}pyrimidine-2,4-diamine], the figure is 86 nM. Same read-out and setting: with `CC(C)(C)CNc1ccc(-c2c(N)nc(N)nc2COCc2ccccc2)cc1` [6-[(benzyloxy)methyl]-5-{4-[(2,2-dimethylpropyl)amino]phenyl}pyrimidine-2,4-diamine] the figure was 700 nM. On the same count and under the same terms, with `CCc1nc(N)nc(N)c1-c1ccc(NCc2ccc(S(C)(=O)=O)cc2)c(Cl)c1` [5-(3-chloro-4-{[(4-methanesulfonylphenyl)methyl]amino}phenyl)-6-ethylpyrimidine-2,4-diamine] the figure was 11 nM; with `CCc1nc(N)nc(N)c1-c1ccc(N(C)Cc2ccc(S(C)(=O)=O)cc2)cc1` [6-ethyl-5-(4-{[(4-methanesulfonylphenyl)methyl](methyl)amino}phenyl)pyrimidine-2,4-diamine], 32 nM; with `Nc1nc(N)c(-c2ccc(NCc3csc(Cl)c3)cc2)c(COCc2ccccc2)n1` [6-[(benzyloxy)methyl]-5-(4-{[(5-chlorothiophen-3-yl)methyl]amino}phenyl)pyrimidine-2,4-diamine], 170 nM.

`CCc1nc(N)nc(N)c1-c1ccc(NCc2ccc(S(C)(=O)=O)cc2)c(Br)c1` [5-(3-bromo-4-{[(4-methanesulfonylphenyl)methyl]amino}phenyl)-6-ethylpyrimidine-2,4-diamine] had a half-maximal inhibitory concentration (IC50) of 42 nM. The same measure, in the same setting: with `Nc1nc(N)c(-c2ccc(NCc3cnc4ccccc4c3)cc2)c(COCc2ccccc2)n1` [6-[(benzyloxy)methyl]-5-{4-[(quinolin-3-ylmethyl)amino]phenyl}pyrimidine-2,4-diamine] the figure was 780 nM; with `Nc1nc(N)c(-c2ccc(NCc3ccccc3)cc2)c(COCc2ccccc2)n1` [5-[4-(benzylamino)phenyl]-6-[(benzyloxy)methyl]pyrimidine-2,4-diamine], 980 nM; with `CS(=O)(=O)c1ccc(COc2ccc(-c3c(N)nc(N)nc3COCc3ccccc3)cc2)cc1` [6-[(benzyloxy)methyl]-5-{4-[(4-methanesulfonylphenyl)methoxy]phenyl}pyrimidine-2,4-diamine], 48 nM. Compound `CCc1nc(N)nc(N)c1-c1ccc(CNc2ccc([N+](=O)[O-])cc2)cc1` [6-ethyl-5-(4-{[(4-nitrophenyl)amino]methyl}phenyl)pyrimidine-2,4-diamine] displayed an IC50 of 190 nM.

`CCc1nc(N)nc(N)c1-c1ccc(CNc2ccc(S(C)(=O)=O)cc2)cc1` [6-ethyl-5-(4-{[(4-methanesulfonylphenyl)amino]methyl}phenyl)pyrimidine-2,4-diamine] displayed a half-maximal inhibitory concentration (IC50) of 120 nM.

Take `N#Cc1ccc(COc2ccc(-c3c(N)nc(N)nc3COCc3ccccc3)cc2)cc1` [2,4-diaminopyrimidine derivative, 10b]: the 50% inhibitory concentration (IC50) came out at 3610 nM.

In turn, `COc1ccc(CNc2ccc(-c3c(N)nc(N)nc3COCc3ccccc3)cc2)cc1` [6-[(benzyloxy)methyl]-5-(4-{[(4-methoxyphenyl)methyl]amino}phenyl)pyrimidine-2,4-diamine] yielded a half-maximal inhibitory concentration (IC50) of 90 nM. Still for that read-out and setting: as for `Nc1nc(N)c(-c2ccc(NCc3ccc(Cl)s3)cc2)c(COCc2ccccc2)n1` [6-[(benzyloxy)methyl]-5-(4-{[(5-chlorothiophen-2-yl)methyl]amino}phenyl)pyrimidine-2,4-diamine], the figure is 320 nM; as for `Nc1nc(N)c(-c2ccc(NCc3ccc(Cl)cc3)cc2)c(CCc2ccccc2)n1` [5-(4-{[(4-chlorophenyl)methyl]amino}phenyl)-6-(2-phenylethyl)pyrimidine-2,4-diamine], 3350 nM.

Staying with this test, now noted: pH 7.4; 22 °C.
Compound `CS(=O)(=O)c1ccc(CNc2ccc(-c3c(N)nc(N)nc3COCc3ccccc3)cc2)cc1` registered a half-maximal inhibitory concentration (IC50) of 7.2 nM. For the compound `CC(=O)c1ccc(CNc2ccc(-c3c(N)nc(N)nc3COCc3ccccc3)cc2)cc1` [1-(4-{[(4-{2,4-diamino-6-[(benzyloxy)methyl]pyrimidin-5-yl}phenyl)amino]methyl}phenyl)ethan-1-one], the IC50 came out at 10 nM.

In the case of `CCc1nc(N)nc(N)c1-c1ccc(NCc2ccc([N+](=O)[O-])cc2)cc1` [6-ethyl-5-(4-{[(4-nitrophenyl)methyl]amino}phenyl)pyrimidine-2,4-diamine], the IC50 stood at 23 nM. Regarding `Nc1nc(N)c(-c2ccc(NCc3ccc(C(F)(F)F)cc3)cc2)c(COCc2ccccc2)n1` [6-[(benzyloxy)methyl]-5-[4-({[4-(trifluoromethyl)phenyl]methyl}amino)phenyl]pyrimidine-2,4-diamine], the IC50 is 97 nM.

The compound `CCc1nc(N)nc(N)c1-c1ccc(NCc2ccc(S(C)(=O)=O)cc2)cc1` [6-ethyl-5-(4-{[(4-methanesulfonylphenyl)methyl]amino}phenyl)pyrimidine-2,4-diamine] returned an IC50 of 12 nM.

`CCc1nc(N)nc(N)c1-c1ccc(NCc2ccc(C#N)cc2)cc1` [4-({[4-(2,4-diamino-6-ethylpyrimidin-5-yl)phenyl]amino}methyl)benzonitrile] yielded a concentration for half-maximal inhibition (IC50) of 780 nM. Turning to `CCc1nc(N)nc(N)c1-c1ccc(NCc2ccc(Cl)cc2)cc1` [5-(4-{[(4-chlorophenyl)methyl]amino}phenyl)-6-ethylpyrimidine-2,4-diamine], the 50% inhibitory concentration (IC50) was 1380 nM. With `Nc1nc(N)c(-c2ccc(NCc3ccc([N+](=O)[O-])cc3)cc2)c(COCc2ccccc2)n1` [6-[(benzyloxy)methyl]-5-(4-{[(4-nitrophenyl)methyl]amino}phenyl)pyrimidine-2,4-diamine], the half-inhibitory concentration (IC50) came to 5.8 nM.

For the compound `Nc1nc(N)c(-c2ccc(NCc3ccc(S(=O)(=O)C(F)(F)F)cc3)cc2)c(COCc2ccccc2)n1` [6-[(benzyloxy)methyl]-5-[4-({[4-(trifluoromethane)sulfonylphenyl]methyl}amino)phenyl]pyrimidine-2,4-diamine], the IC50 came to 85 nM.

In the case of `CCc1nc(N)nc(N)c1-c1ccc(NCc2ccc(C(C)O)cc2)cc1` (stereo unspecified) [1-[4-({[4-(2,4-diamino-6-ethylpyrimidin-5-yl)phenyl]amino}methyl)phenyl]ethan-1-ol], the IC50 was 110 nM. Same read-out and setting: with `N#Cc1ccc(CNc2ccc(-c3c(N)nc(N)nc3COCc3ccccc3)cc2)cc1` [4-{[(4-{2,4-diamino-6-[(benzyloxy)methyl]pyrimidin-5-yl}phenyl)amino]methyl}benzonitrile] the figure was 19 nM; with `CCc1nc(N)nc(N)c1-c1ccc(NCc2cc(F)c(S(C)(=O)=O)c(F)c2)cc1` [5-(4-{[(3,5-difluoro-4-methanesulfonylphenyl)methyl]amino}phenyl)-6-ethylpyrimidine-2,4-diamine], 45 nM; with `CCc1nc(N)nc(N)c1-c1ccc(NCc2ccnc(Cl)c2)cc1` [5-(4-{[(2-chloropyridin-4-yl)methyl]amino}phenyl)-6-ethylpyrimidine-2,4-diamine], 220 nM.

The compound `CCc1nc(N)nc(N)c1-c1ccc(NCc2ccc(C(C)=O)cc2)cc1` [1-[4-({[4-(2,4-diamino-6-ethylpyrimidin-5-yl)phenyl]amino}methyl)phenyl]ethan-1-one] returned an IC50 of 110 nM. Compound `Nc1nc(N)c(-c2ccc(NCc3ccc(Cl)cc3)cc2)c(COCc2ccccc2)n1` [6-[(benzyloxy)methyl]-5-(4-{[(4-chlorophenyl)methyl]amino}phenyl)pyrimidine-2,4-diamine] registered an IC50 of 180 nM. The same measure, in the same setting: with `CCc1nc(N)nc(N)c1-c1ccc(NCc2ccc(S(=O)(=O)C(F)(F)F)cc2)cc1` [6-ethyl-5-[4-({[4-(trifluoromethane)sulfonylphenyl]methyl}amino)phenyl]pyrimidine-2,4-diamine] the figure was 690 nM; with `CCc1nc(N)nc(N)c1-c1ccc(NCc2csc(Cl)c2)cc1` [5-(4-{[(5-chlorothiophen-3-yl)methyl]amino}phenyl)-6-ethylpyrimidine-2,4-diamine], 790 nM; with `Nc1nc(N)c(-c2ccc(NCc3ccnc(Cl)c3)cc2)c(COCc2ccccc2)n1` [6-[(benzyloxy)methyl]-5-(4-{[(2-chloropyridin-4-yl)methyl]amino}phenyl)pyrimidine-2,4-diamine], 3.6 nM.

The same test, now with this note: pH 7.4; 22 °C; read-out: IC50.
Turning to `Nc1nc(N)c(-c2ccc(NCc3ccc(S(=O)(=O)C(F)(F)F)cc3)cc2)c(COCc2ccccc2)n1` [6-[(benzyloxy)methyl]-5-[4-({[4-(trifluoromethane)sulfonylphenyl]methyl}amino)phenyl]pyrimidine-2,4-diamine], the IC50 amounted to 1 nM.

For `CCc1nc(N)nc(N)c1-c1ccc(NCc2ccc(S(=O)(=O)C(F)(F)F)cc2)cc1` [6-ethyl-5-[4-({[4-(trifluoromethane)sulfonylphenyl]methyl}amino)phenyl]pyrimidine-2,4-diamine], the IC50 came to 21 nM.
